Assays:
hybrid spheroids [1] = experiment: MTT assay of hybrid spheroids; format: cell-based, human
Experimental: First, an MTT assay was conducted. The spheroids of Examples 2 and 3 were incubated with 5 mg/mL 3-(4,5-Dimethylthiazol-2-yl)-2,5-diphenyltetrazolium bromide (MTT, Sigma) solution at day 7 after three cell types were co-cultured unless otherwise noted. The absorbance of the samples was measured at 500 nm using a microplate reader (Biorad, Richmond, Calif.).
The hMSCs were labeled with CellTracker Green.

iNPC-iEC-MSC spheroids = experiment: Spheroid fusion / aggregation kinetics (squared aspect ratio); format: cell-based, human
Experimental: To form hHA hydrogels, 1% (w/v) HA from Sigma Aldrich solution was reacted with a 5-fold molar excess amount of methacrylic anhydride (MA) from Sigma Aldrich for 15 h in the dark at 4° C. The final product was collected by precipitating the solution in 5-fold volume of ethanol twice, and was then purified by dialysis using a membrane (3.5 kDa Mw cut-off, Thermofisher) to remove unreacted reagents. The purified MA-HA was filtered, lyophilized, and stored at −20° C. until further use. Next, ^1H-NMR spectroscopy (a Bruker 500M spectrometer at […]) was used to analyze and the degree of methacrylation. For culture experiments, day 14 iEC spheroids were transferred to the wells containing day 14 iNPC spheroids, at the same time hMSCs were added into the wells at different ratios (iNPC:iEC:MSC=4:2:0, 3:2:1 2:2:2, and 1:2:3). […] The morphology of hybrid spheroids were captured over 7 days by a phase contrast microscope.
Images of spheroid fusion were captured over time by a phase contrast microscope. The captured images were converted to binary images using ImageJ software (rsb.info.nih.gov/ij) and analyzed with the “particle analysis tool”. Through particle analysis, the squared aspect ratio of contact length between the two aggregates over maximum diameter (FIG. 6A) was determined to indicate the aggregate fusion process. The inter-sphere angle was measured as the intersecting angle between the tangent lines of two contacted spheroids to the touch point. For some experiments, the number of branching points and the total tube length in the area were evaluated.

hybrid spheroids [2] = experiment: Neurite outgrowth of replated hybrid spheroids; format: cell-based, human; settings: ROCKi Y27632 10 μM, day 21 spheroids replated three days
Experimental: Effects of ROCKi Y27632, Geltrex, and HA on neurogenesis of hybrid spheroids were depicted (not shown). Day 21 hybrid spheroids embedded in Geltrex (5%) or treated with ROCKi Y27632 (10 μM) were replated on 1% Geltrex-coated surface for three days. Neurite and axonal extension indicated by β-tubulin III expression was shown. Phase contrast images of axon outgrowth of day 21 spheroids were produced (not shown). Fluorescent images for day 39 spheroids: neuron marker β-tubulin III, motor neuron progenitor marker Islet-1, GABAergic neuron marker (GABA), glutamatergic neuron marker (Glutamate), cortical neuron marker (TBR1), pre-synaptic marker synapsin I and post-synaptic marker PSD95 were produced (not shown).

Experimental for hMSCs in fused spheroids: The hMSCs were labeled with CellTracker Green. The hybrid (iNPC-iEC-MSC) spheroids were cultured in neural differentiation media (control) or media containing the CXCR4 inhibitor AMD3100 (100 nM, Sigma) for additional 10 days [53]. The fusion kinetics and cell localization were captured over time.

| Structure (SMILES) | MTT activity (cell proliferation) (hybrid spheroids [1]; AMD3100 100 nM, day 24 hybrid spheroids) | area occupied by hMSCs (hMSCs in fused spheroids; AMD3100 100 nM vs control groups) | aspect ratio of hMSCs (area occupied by hMSCs to total area of fused spheroids) (hMSCs in fused spheroids; AMD3100 100 nM, day 4 to day 8) | aspect ratio (iNPC-iEC-MSC spheroids; 20 μM or 40 μM ROCKi, plateau over 7 days) | tendency of two spheroids to fuse (iNPC-iEC-MSC spheroids; high concentration (20 μM or 40 μM)) | integration of MSCs into iNPC-iEC spheroids (iNPC-iEC-MSC spheroids; low concentration of ROCKi (10 μM)) | MTT activity (hybrid spheroids [1]; 20 μM ROCKi Y27632, 7 days of tri-culture, vs no treatment) | neurite outgrowth (hybrid spheroids [2]) |
| --- | --- | --- | --- | --- | --- | --- | --- | --- |
| c1cc(CN2CCCNCCNCCCNCC2)ccc1CN1CCCNCCNCCCNCC1 [AMD3100] | little influence on cell proliferation | smaller than the control groups | decreased from day 4 to day 8 | – | – | – | – | – |
| C[C@@H](N)[C@H]1CC[C@H](C(=O)Nc2ccncc2)CC1 [Y27632] | – | – | – | 0.5-0.7 | disrupted | did not impact | increased MTT activity | enhanced |

Reference: US11613729B2, “Cortical spheroids and methods of making the same” (The Florida State University Research Foundation, Inc., priority 2019, dated 2023)
